# Laboratory results as given in US9896445B2, “Heterocyclic inhibitors of ERK1 and ERK2 and their use in the treatment of cancer” (Asana Biosciences, LLC, priority 2015, dated 2018).
# What was measured:
# [1] = target: T1, ERK1 (Homo sapiens, UniProt P27361); assay: ERK1 HTRF (biochemical) assay
# T1 construct: purchased Jubilant Biosys
# Protocol: ERK1 and ERK2 HTRF (Biochemical) Assays
# These assays employed a homogeneous time resolved fluorescence (HTRF) technique. […] The plate was incubated at room temperature for 60 min with shaking. […] The IC50 values (half maximal inhibitory concentration values) were subsequently determined using a sigmoidal dose-response curve (variable slope) in GraphPad Prism® 5 software.
# [2] = target: T2, ERK2 (Homo sapiens, UniProt P28482); assay: ERK2 HTRF (biochemical) assay
# T2 construct: purchased Jubilant Biosys
# Summary of the method: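 Compounds were tested as half-log dilutions from 0.0005 to 10 uM in Tris pH 7.5/MgCl2 buffer, with a substrate mix of 1 uM biotin-MBP peptide and 24 uM ATP and an enzyme mix of 25 nM ERK2. Reaction ran 60 min at room temperature. Phospho-MBP was detected by HTRF (Eu-anti-phospho-MBP/SA-APC, 665/620 nm), and IC50 was fitted with a variable-slope sigmoidal curve.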
# T1 sequence (P27361 whole entry): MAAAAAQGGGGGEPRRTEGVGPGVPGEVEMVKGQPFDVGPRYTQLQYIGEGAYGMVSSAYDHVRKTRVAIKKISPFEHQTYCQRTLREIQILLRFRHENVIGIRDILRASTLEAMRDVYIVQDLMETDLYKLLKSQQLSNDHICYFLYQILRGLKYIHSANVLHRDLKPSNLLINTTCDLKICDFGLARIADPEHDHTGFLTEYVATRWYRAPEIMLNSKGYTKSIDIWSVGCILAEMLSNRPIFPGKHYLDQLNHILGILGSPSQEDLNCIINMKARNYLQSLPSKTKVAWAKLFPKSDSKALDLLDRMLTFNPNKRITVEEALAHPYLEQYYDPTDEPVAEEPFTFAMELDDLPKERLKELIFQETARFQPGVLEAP
# T2 sequence (P28482 whole entry): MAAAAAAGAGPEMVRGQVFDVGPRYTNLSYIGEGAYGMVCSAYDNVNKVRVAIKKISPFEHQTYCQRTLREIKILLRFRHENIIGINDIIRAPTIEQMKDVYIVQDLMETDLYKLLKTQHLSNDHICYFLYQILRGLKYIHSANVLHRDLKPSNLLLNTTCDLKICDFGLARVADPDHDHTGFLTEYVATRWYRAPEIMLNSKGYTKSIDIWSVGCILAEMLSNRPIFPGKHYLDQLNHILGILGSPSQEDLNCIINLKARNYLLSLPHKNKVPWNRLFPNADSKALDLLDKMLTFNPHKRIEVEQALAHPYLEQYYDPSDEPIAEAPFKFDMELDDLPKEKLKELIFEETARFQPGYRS
SMILES,IC50 ([1]; HTRF) [nM],IC50 ([2]; HTRF) [nM],IC50 ([1]; HTRF biochemical assay) [nM],IC50 ([2]; HTRF biochemical assay) [nM]
"Cc1cnc(Nc2ccc(F)cc2Cl)nc1-n1cnc(C(=O)NC(CN)c2cccc(Cl)c2)c1 (stereo not drawn) [Compound 232, N-(2-amino-1-(3-chlorophenyl)ethyl)-1-(2-((2-chloro-4-fluorophenyl)amino)-5-methyl-pyrimidin-4-yl)-1H-imidazole-4-carboxamide]",< 50,≤ 50,–,–
"Cc1cnc(NC2CCC(F)(F)CC2)nc1-n1cnc(C(=O)N[C@H](CO)c2cccc(Cl)c2)c1 [Compound 240, (S)-N-(1-(3-chlorophenyl)-2-hydroxyethyl)-1-(2-((4,4-difluorocyclo-hexyl)amino)-5-methylpyrimidin-4-yl)-1H-imidazole-4-carboxamide]",< 50,≤ 50,–,–
"Cc1cnc(Nc2ccc3c(c2)OCO3)nc1-n1cc(NC(=O)NC(CO)c2cccc(Cl)c2)cn1 (stereo not drawn) [Compound 37, 1-(1-(2-(benzo[d][1,3]dioxol-5-ylamino)-5-methylpyrimidin-4-yl)-1H-pyrazol-4-yl)-3-(1-(3-chlorophenyl)-2-hydroxyethyl)urea]",100 to 500,≤ 50,–,–
"Cc1cnc(Nc2ccc(F)cc2Cl)nc1-n1cc(C(=O)N[C@H](CO)c2cccc(Cl)c2)cn1 [Compound 35, (S)-1-(2-((2-chloro-4-fluoro-phenyl)amino)-5-methylpyrimidin-4-yl)-N-(1-(3-chloro-phenyl)-2-hydroxy-ethyl)-1H-pyrazole-4-carboxamide]",< 50,≤ 50,–,–
"Cc1cnc(N[C@H]2CCOC2)nc1-n1cnc(C(=O)NCc2cccc(C#N)c2)c1 [Example 310, (S)-N-(3-cyano-benzyl)-1-(5-methyl-2-((tetrahydrofuran-3-yl)amino)-pyrimidin-4-yl)-1H-imidazole-4-carboxamide]",–,–,100 to 500,≤ 50
"Cc1cnc(Nc2ccc3c(c2)OCO3)nc1-n1ccc(C(=O)N[C@H](CO)Cc2ccccc2)c1 [Compound 59, (S)-1-(2-(benzo[d][1,3]dioxol-5-ylamino)-5-methylpyrimidin-4-yl)-N-(1-hydroxy-3-phenylpropan-2-yl)-1H-pyrrole-3-carboxamide]",50 to 100,≤ 50,–,–
"Cc1cnc(Nc2ccc(F)cc2Cl)nc1-n1ccc(C(=O)N[C@H](CO)c2cccc(Cl)c2)c1 [Compound 57, (S)-1-(2-((2-chloro-4-fluorophenyl)-amino)-5-methyl-pyrimidin-4-yl)-N-(1-(3-chlorophenyl)-2-hydroxyethyl)-1H-pyrrole-3-carboxamide]",< 50,≤ 50,–,–
"Cc1cnc(Nc2ccc3c(c2)OCO3)nc1-n1ccc(C(=O)N[C@H](CO)c2ccccc2)c1 [Compound 60, (S)-1-(2-(benzo[d][1,3]dioxol-5-ylamino)-5-methylpyrimidin-4-yl)-N-(2-hydroxy-1-phenylethyl)-1H-pyrrole-3-carboxamide]",< 50,≤ 50,–,–
"CNCCNC[C@@H](NC(=O)c1cn(-c2nc(NC3CCOCC3)ncc2C)cn1)c1cccc(Cl)c1 [Example 345, ((S)-N-(1-(3-chlorophenyl)-2-((2-(methylamino)ethyl)amino)ethyl)-1-(5-methyl-2-((tetrahydro-2H-pyran-4-yl)amino)-pyrimidin-4-yl)-1H-imidazole-4-carboxamide2,2,2-trifluoroacetate]",–,–,< 50,≤ 50
"Cc1cnc(NC2CCOCC2)nc1-n1cnc(C(=O)NC(CO)c2cccc(C(F)(F)F)c2)c1 (stereo not drawn) [Compound 237, N-(2-hydroxy-1-(3-(trifluoromethyl)-phenyl)ethyl)-1-(5-methyl-2-((tetrahydro-2H-pyran-4-yl)amino)-pyrimidin-4-yl)-1H-imidazole-4-carboxamide]",< 50,≤ 50,–,–
"O=C(NC(CO)c1ccccc1)c1ccn(-c2ccnc(NC3CCOC3)c2)c1 (stereo not drawn) [Compound 189, N-(2-hydroxy-1-phenylethyl)-1-(2-((tetrahydrofuran-3-yl)amino)pyridin-4-yl)-1H-pyrrole-3-carboxamide]",100 to 500,500 to 2500,–,–
"Cc1cnc(NC2CCS(=O)(=O)C2)nc1-n1cnc(C(=O)N[C@H](CO)c2cccc(Cl)c2)c1 (stereo partly drawn) [Compound 246, N-((S)-1-(3-chlorophenyl)-2-hydroxyethyl)-1-(2-((1,1-dioxido-tetrahydrothiophen-3-yl)amino)-5-methylpyrimidin-4-yl)-1H-imidazole-4-carboxamide]",< 50,≤ 50,–,–

# Continued, values first:
IC50 ([1]; HTRF) [nM],IC50 ([2]; HTRF) [nM],IC50 ([1]; HTRF biochemical assay) [nM],IC50 ([2]; HTRF biochemical assay) [nM],SMILES
< 50,≤ 50,–,–,"Cc1cnc(NC2CCOCC2)nc1-n1cnc(C(=O)NCc2cccc(Cl)n2)c1 [Example 307, N-((6-chloro-pyridin-2-yl)methyl)-1-(5-methyl-2-((tetrahydro-2H-pyran-4-yl)amino)-pyrimidin-4-yl)-1H-imidazole-4-carboxamide]"
< 50,≤ 50,–,–,"Cc1cnc(Nc2ccc(Oc3ccccc3)cc2)nc1-n1cnc(C(=O)NC(CN)c2cccc(Cl)c2)c1 (stereo not drawn) [Compound 231, N-(2-amino-1-(3-chlorophenyl)ethyl)-1-(5-methyl-2-((4-phenoxyphenyl)amino)pyrimidin-4-yl)-1H-imidazole-4-carboxamide]"
50 to 100,50 to 100,–,–,"Cc1cnc(N[C@H]2CCOC2)nc1-n1ccc(C(=O)NC(CO)c2ccc(F)cc2)c1 (stereo partly drawn) [Compound 204, N-(1-(4-fluoro-phenyl)-2-hydroxy-ethyl)-1-(5-methyl-2-(((S)-tetrahydro-furan-3-yl)amino)-pyrimidin-4-yl)-1H-pyrrole-3-carboxamide]"
< 50,≤ 50,–,–,"Cc1cnc(Nc2ccc3c(c2)OCO3)nc1-n1cnc(C(=O)N[C@H](CO)c2cccc(Cl)c2)c1 [Compound 48, (S)-1-(2-(benzo[d][1,3]dioxol-5-ylamino)-5-methylpyrimidin-4-yl)-N-(1-(3-chloro-phenyl)-2-hydroxy-ethyl)-1H-imidazole-4-carboxamide]"
–,–,< 50,≤ 50,"Cc1cnc(NC2CCOCC2)nc1-n1cnc(C(=O)NCc2ccc(Cl)cc2CO)c1 [Example 343, N-(4-chloro-2-hydroxymethyl-benzyl)-1-(5-methyl-2-((tetrahydro-2H-pyran-4-yl)amino)-pyrimidin-4-yl)-1H-imidazole-4-carboxamide]"
100 to 500,100 to 500,–,–,"Cc1cnc(Nc2ccc(N3CCC(N4CCNCC4)CC3)cc2)nc1-n1ccc(C(=O)NC(CO)c2ccccc2)c1 (stereo not drawn) [Compound 178, N-(2-hydroxy-1-phenylethyl)-1-(5-methyl-2-((4-(4-(piperazin-1-yl)-piperidin-1-yl)-phenyl)amino)pyrimidin-4-yl)-1H-pyrrole-3-carboxamide]"
< 50,≤ 50,–,–,"Cc1cnc(NC2CC=CCC2)nc1-n1cnc(C(=O)N[C@H](CN)c2cccc(Cl)c2)c1 (stereo partly drawn) [Example 292, N-((S)-2-amino-1-(3-chlorophenyl)-ethyl)-1-(2-(cyclohex-3-en-1-ylamino)-5-methyl-pyrimidin-4-yl)-1H-imidazole-4-carboxamide]"
100 to 500,50 to 100,–,–,"Cc1cnc(NC2CC(F)(F)C2)nc1-n1cnc(C(=O)N[C@@H](CN)c2cc(F)cc(Cl)c2)c1 [Example 289, (R)-N-(2-amino-1-(3-chloro-5-fluoro-phenyl)ethyl)-1-(2-((3,3-difluoro-cyclobutyl)amino)-5-methylpyrimidin-4-yl)-1H-imidazole-4-carboxamide]"
100 to 500,100 to 500,–,–,"O=C(Nc1cnn(-c2ccnc(N[C@H]3CC[C@H](O)CC3)n2)c1)N[C@H](CO)c1cccc(Cl)c1 [Compound 14, 1-((S)-1-(3-chlorophenyl)-2-hydroxyethyl)-3-(1-(2-((trans-4-hydroxycyclohexyl)amino)pyrimidin-4-yl)-1H-pyrazol-4-yl)urea]"
< 50,≤ 50,–,–,"Cc1cnc(Nc2ccc3c(c2)CCCO3)nc1-n1ccc(C(=O)NC(CO)c2ccccc2)c1 (stereo not drawn) [Compound 173, 1-(2-(chroman-6-ylamino)-5-methyl-pyrimidin-4-yl)-N-(2-hydroxy-1-phenylethyl)-1H-pyrrole-3-carboxamide]"
< 50,≤ 50,–,–,"Cc1cnc(Nc2ccc3occc3c2)nc1-n1ccc(C(=O)NC(CO)c2cccc(Cl)c2)c1 (stereo not drawn) [Compound 68, 1-(2-(benzofuran-5-ylamino)-5-methylpyrimidin-4-yl)-N-(1-(3-chlorophenyl)-2-hydroxyethyl)-1H-pyrrole-3-carboxamide]"
< 50,≤ 50,–,–,"Cc1cnc(Nc2ccc(F)cc2Cl)nc1-n1cnc(C(=O)N[C@H](CO)c2cccc(Cl)c2)c1 [Compound 241, (S)-1-(2-((2-chloro-4-fluorophenyl)-amino)-5-methyl-pyrimidin-4-yl)-N-(1-(3-chlorophenyl)-2-hydroxyethyl)-1H-imidazole-4-carboxamide]"
–,–,< 50,≤ 50,"Cc1cnc(NC2CCOCC2)nc1-n1cnc(C(=O)N[C@H](CNC2CCOCC2)c2cccc(Cl)c2)c1 [Example 308, (S)-N-(1-(3-chlorophenyl)-2-((tetrahydro-2H-pyran-4-yl)amino)-ethyl)-1-(5-methyl-2-((tetrahydro-2H-pyran-4-yl)amino)-pyrimidin-4-yl)-1H-imidazole-4-carbox amide]"
< 50,≤ 50,–,–,"COc1cc(Nc2ncc(C)c(-n3ccc(C(=O)N[C@H](CO)c4ccc(F)c(Cl)c4)c3)n2)cc(OC)c1OC [Compound 126, (S)-N-(1-(3-chloro-4-fluorophenyl)-2-hydroxyethyl)-1-(5-methyl-2-((3,4,5-trimethoxyphenyl)amino)pyrimidin-4-yl)-1H-pyrrole-3-carboxamide]"
< 50,≤ 50,–,–,"Cc1cnc(NC2CCCCC2)nc1-n1cnc(C(=O)NC(CO)c2cccc(Cl)c2)c1 (stereo not drawn) [Compound 226, N-(1-(3-chloro-phenyl)-2-hydroxy-ethyl)-1-(2-(cyclohexylamino)-5-methylpyrimidin-4-yl)-1H-imidazole-4-carboxamide]"
